Test results as given in PubChem BioAssay (NCI).
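GI50 marks 50% less growth. TGI is the concentration that stops growth completely.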

Columns and labels:
Test in all cases: DTP human tumour cell line panel, 384-well format
RXF 393 renal = test system: RXF 393 renal
MCF7 breast = test system: MCF7 breast
A549 NSCLC = test system: A549 NSCLC
NCI-H23 lung = test system: NCI-H23 lung
SF-295 CNS = test system: SF-295 CNS
MDA-MB-468 breast = test system: MDA-MB-468 breast
EKVX NSCLC = test system: EKVX NSCLC
OVCAR-3 ovarian = test system: OVCAR-3 ovarian
SR leukemia = test system: SR leukemia
MALME-3M melanoma = test system: MALME-3M melanoma
MDA-MB-231 breast = test system: MDA-MB-231 breast
PC-3 prostate = test system: PC-3 prostate
DU-145 prostate = test system: DU-145 prostate
M14 melanoma = test system: M14 melanoma
SNB-75 CNS = test system: SNB-75 CNS
HCT-15 colon = test system: HCT-15 colon
OVCAR-5 ovarian = test system: OVCAR-5 ovarian
SF-268 CNS = test system: SF-268 CNS
NCI/ADR-RES ovarian = test system: NCI/ADR-RES ovarian
IGROV1 ovarian = test system: IGROV1 ovarian
CAKI-1 renal = test system: CAKI-1 renal
HOP-62 NSCLC = test system: HOP-62 NSCLC
HT29 colon = test system: HT29 colon
MDA-MB-435 melanoma = test system: MDA-MB-435 melanoma
NCI-H522 lung = test system: NCI-H522 lung
ACHN renal = test system: ACHN renal
UACC-62 melanoma = test system: UACC-62 melanoma
TK-10 renal = test system: TK-10 renal
SK-OV-3 ovarian = test system: SK-OV-3 ovarian
HL-60(TB) leukemia = test system: HL-60(TB) leukemia
K-562 leukemia = test system: K-562 leukemia
HS 578T breast = test system: HS 578T breast
OVCAR-4 ovarian = test system: OVCAR-4 ovarian
HOP-92 NSCLC = test system: HOP-92 NSCLC
SK-MEL-28 melanoma = test system: SK-MEL-28 melanoma
NCI-H460 NSCLC = test system: NCI-H460 NSCLC
COLO 205 colon = test system: COLO 205 colon
MOLT-4 leukemia = test system: MOLT-4 leukemia
T-47D breast = test system: T-47D breast
BT-549 breast = test system: BT-549 breast
SN12C renal = test system: SN12C renal
NCI-H322M lung = test system: NCI-H322M lung
A498 renal = test system: A498 renal
KM12 colon = test system: KM12 colon
SNB-19 CNS = test system: SNB-19 CNS
SK-MEL-5 melanoma = test system: SK-MEL-5 melanoma
NCI-H226 lung = test system: NCI-H226 lung
786-0 renal = test system: 786-0 renal
SW-620 colon = test system: SW-620 colon
CCRF-CEM leukemia = test system: CCRF-CEM leukemia
UACC-257 melanoma = test system: UACC-257 melanoma
LOX IMVI melanoma = test system: LOX IMVI melanoma
OVCAR-8 ovarian = test system: OVCAR-8 ovarian
RPMI-8226 leukemia = test system: RPMI-8226 leukemia
UO-31 renal = test system: UO-31 renal
SF-539 CNS = test system: SF-539 CNS
HCC-2998 colon = test system: HCC-2998 colon

With `Cc1c(C#N)cccc1[C@@H](C)Nc1nnc(C)c2cnc(N3CCOCC3)cc12` the GI50 (RXF 393 renal) was 12 µM, the TGI (RXF 393 renal) was 24.6 µM and the GI50 (MCF7 breast) was 15.8 µM. For the same compound, the TGI (MCF7 breast) was 35.5 µM, the GI50 (A549 NSCLC) was 16.7 µM and the TGI (A549 NSCLC) was 36.3 µM. It also gave a GI50 (NCI-H23 lung) of 10.6 µM, a TGI (NCI-H23 lung) of 23.2 µM and a GI50 (SF-295 CNS) of 14.7 µM. For the same compound, the TGI (SF-295 CNS) was 28 µM, the GI50 (MDA-MB-468 breast) was 0.39 µM and the TGI (MDA-MB-468 breast) was 6.37 µM. It also gave a GI50 (EKVX NSCLC) of 11.7 µM, a TGI (EKVX NSCLC) of 26.8 µM and a GI50 (OVCAR-3 ovarian) of 13.4 µM. For the same compound, the TGI (OVCAR-3 ovarian) was 26.4 µM, the GI50 (SR leukemia) was 0.749 µM and the TGI (SR leukemia) was 18.1 µM. For the same compound, the GI50 (MALME-3M melanoma) was 16.6 µM, the TGI (MALME-3M melanoma) was 30.6 µM and the GI50 (MDA-MB-231 breast) was 14.3 µM. The TGI (MDA-MB-231 breast) was 29.3 µM, the GI50 (PC-3 prostate) was 17 µM and the TGI (PC-3 prostate) was 32.3 µM. It also gave a GI50 (DU-145 prostate) of 18.5 µM, a TGI (DU-145 prostate) of 37.6 µM and a GI50 (M14 melanoma) of 17.2 µM. The TGI (M14 melanoma) was 31.1 µM, the GI50 (SNB-75 CNS) was 16.3 µM and the TGI (SNB-75 CNS) was 33.3 µM. The GI50 (HCT-15 colon) was 16.1 µM, the TGI (HCT-15 colon) was 29.9 µM and the GI50 (OVCAR-5 ovarian) was 19.1 µM. For the same compound, the TGI (OVCAR-5 ovarian) was 38.9 µM, the GI50 (SF-268 CNS) was 16 µM and the TGI (SF-268 CNS) was 30.8 µM. The GI50 (NCI/ADR-RES ovarian) was 16.6 µM, the TGI (NCI/ADR-RES ovarian) was 32.1 µM and the GI50 (IGROV1 ovarian) was 15.5 µM. The TGI (IGROV1 ovarian) was 31.4 µM, the GI50 (CAKI-1 renal) was 10.5 µM and the TGI (CAKI-1 renal) was 23 µM. It also gave a GI50 (HOP-62 NSCLC) of 14.2 µM, a TGI (HOP-62 NSCLC) of 27.9 µM and a GI50 (HT29 colon) of 15.7 µM. For the same compound, the TGI (HT29 colon) was 30 µM, the GI50 (MDA-MB-435 melanoma) was 18.2 µM and the TGI (MDA-MB-435 melanoma) was 32.4 µM. For the same compound, the GI50 (NCI-H522 lung) was 11.5 µM, the TGI (NCI-H522 lung) was 24 µM and the GI50 (ACHN renal) was 14.5 µM. The TGI (ACHN renal) was 31.6 µM, the GI50 (UACC-62 melanoma) was 16.6 µM and the TGI (UACC-62 melanoma) was 30.3 µM. For the same compound, the GI50 (TK-10 renal) was 15.2 µM, the TGI (TK-10 renal) was 38.9 µM and the GI50 (SK-OV-3 ovarian) was 16.7 µM. The TGI (SK-OV-3 ovarian) was 30.7 µM, the GI50 (HL-60(TB) leukemia) was 21.8 µM and the TGI (HL-60(TB) leukemia) was 36.2 µM. The GI50 (K-562 leukemia) was 0.163 µM, the TGI (K-562 leukemia) was 15 µM and the GI50 (HS 578T breast) was 13.8 µM. The TGI (HS 578T breast) was 26.9 µM, the GI50 (OVCAR-4 ovarian) was 8.18 µM and the TGI (OVCAR-4 ovarian) was 22 µM. The GI50 (HOP-92 NSCLC) was 0.0569 µM, the TGI (HOP-92 NSCLC) was 14.3 µM and the GI50 (SK-MEL-28 melanoma) was 15.4 µM. The TGI (SK-MEL-28 melanoma) was 29.7 µM, the GI50 (NCI-H460 NSCLC) was 17.5 µM and the TGI (NCI-H460 NSCLC) was 32.2 µM. It also gave a GI50 (COLO 205 colon) of 16.5 µM, a TGI (COLO 205 colon) of 30.5 µM and a GI50 (MOLT-4 leukemia) of 12.8 µM. It also gave a TGI (MOLT-4 leukemia) of 25.5 µM, a GI50 (T-47D breast) of 11.3 µM and a TGI (T-47D breast) of 24.6 µM. The GI50 (BT-549 breast) was 14.1 µM, the TGI (BT-549 breast) was 27.4 µM and the GI50 (SN12C renal) was 1.65 µM. The TGI (SN12C renal) was 19.9 µM, the GI50 (NCI-H322M lung) was 11.8 µM and the TGI (NCI-H322M lung) was 26.6 µM. It also gave a GI50 (A498 renal) of 12.1 µM, a TGI (A498 renal) of 24.6 µM and a GI50 (KM12 colon) of 4.85 µM. For the same compound, the TGI (KM12 colon) was 22.2 µM, the GI50 (SNB-19 CNS) was 14.3 µM and the TGI (SNB-19 CNS) was 37.5 µM. For the same compound, the GI50 (SK-MEL-5 melanoma) was 11 µM, the TGI (SK-MEL-5 melanoma) was 23 µM and the GI50 (NCI-H226 lung) was 12.7 µM. For the same compound, the TGI (NCI-H226 lung) was 26.5 µM, the GI50 ([…]-0 renal) was 13.1 µM and the TGI (786-0 renal) was 26.5 µM. For the same compound, the GI50 (SW-620 colon) was 12.6 µM, the TGI (SW-620 colon) was 25.4 µM and the GI50 (CCRF-CEM leukemia) was 19.5 µM. For the same compound, the TGI (CCRF-CEM leukemia) was 33.7 µM, the GI50 (UACC-257 melanoma) was 19.5 µM and the TGI (UACC-257 melanoma) was 33.9 µM. The GI50 (LOX IMVI melanoma) was 14 µM, the TGI (LOX IMVI melanoma) was 27.1 µM and the GI50 (OVCAR-8 ovarian) was 15 µM. The TGI (OVCAR-8 ovarian) was 29 µM, the GI50 (RPMI-8226 leukemia) was 11.2 µM and the TGI (RPMI-8226 leukemia) was 23.3 µM. The GI50 (UO-31 renal) was 13.3 µM, the TGI (UO-31 renal) was 26.8 µM and the GI50 (SF-539 CNS) was 15.9 µM. The TGI (SF-539 CNS) was 29.3 µM, the GI50 (HCC-2998 colon) was 18.3 µM and the TGI (HCC-2998 colon) was 33.3 µM.
